Residues, ends and D or L forms follow the SMILES beside them. No end group written: not given here.

One assay relates to HIV-1IIIB. Kind of assay: HIV-1 antiviral assay in CEM-SS cells (MTS readout). It is filed as cell-based.
A further assay has as its system HCMV strain AD169. Kind of assay: HCMV plaque formation assay in MRC-5 cells. The conditions noted are these: for inhibition of HCMV plaque formation as compared to the virus control experiment: 10 micrograms per ml, 7-10 days.
Assay [1] concerns hepatitis B virus (HBV) ayw strain. Kind of assay: HBV experimental assay system (HepG2-2.2.15, TaqMan PCR of secreted HBV DNA). It is filed as cell-based. The following applies: 10 micrograms per ml; HepG2-2.2.15, six days, HBV DNA by TaqMan PCR. An excerpt:
HepG2-2.2.15 is a stable cell line containing the hepatitis B virus (HBV) ayw strain genome (ATCC Cat. No. CRL-11997). Antiviral compounds blocking any late step of viral replication such as transcription, translation, pregenome encapsidation, reverse transcription, particle assembly and release can be identified and characterized using this cell line. In this assay, an active compound will reduce the production of secreted HBV from cells, measured by utilizing real time quantitative PCR (TaqMan) assay to directly and accurately measure HBV DNA copies.
HepG2-2.2.15 cells were plated in 96-well microtiter plates. After 16-24 hours the confluent monolayer of HepG2-2.2.15 cells was washed and the medium was replaced with complete medium containing test peptides—10 micrograms per ml—in duplicate. […] Six days following the initial administration of the peptides, the cell culture supernatants was collected, treated with pronase and DNAse and then used in a real-time quantitative TaqMan PCR assay. The PCR-amplified HBV DNA was detected in real-time by monitoring increases in fluorescence signals that result from the exonucleolytic degradation of a quenched fluorescence probe molecule that hybridizes to the amplified HBV DNA. […] Antiviral activity was calculated from the reduction in HBV DNA levels (% virus control). […]
(In general: Quantitative PCR measures a nucleic acid by following its amplification.)

The test system of assay [2] is Primary Human endothelial cells (HUVEC). Kind of assay: Endothelial cell migration assay. The following applies: 10 micrograms per ml, 22 hours. The format is cell-based.
The next assay relates to HUVEC. Kind of assay: Endothelial tube formation assay. The format is cell-based, human. The following applies: 10 micrograms per ml, 20 hours. The source says: Positive control was vehicle only.
Another assay deals with murine spleen cells. Kind of assay: Th1/Th2 cytokine profiling assay (Ovalbumin-restimulated spleen cells, CBA kit). The format is cell-based, Balb/c mice. The conditions noted are these: 10 micrograms per ml, Ovalbumin restimulation, 72 hours.

Turning to `Cc1cn([C@H]2C[C@H](N=[N+]=[N-])[C@@H](CO)O2)c(=O)[nH]c1=O` [AZT], in the assay on HIV-1IIIB, the “antiviral activity of positive control compounds (HIV-1)” value is on record as “expected levels of antiviral activity”.
For the compound `Nc1nc(O)c2ncn(COC(CO)CO)c2n1` [Ganciclovir, reference compound], the “antiviral activity of positive control compound (HCMV)” value in the assay on HCMV strain AD169 (positive control, HCMV AD169) is “expected levels of antiviral activity”.
`CC(C)[C@H](NC(=O)[C@H](CC(=O)O)NC(=O)[C@H](CCCCN)NC(=O)[C@@H](N)CCCN=C(N)N)C(=O)N[C@@H](Cc1ccc(O)cc1)C(=O)O` [Peptide 2, Arg-Lys-Asp-Val-Tyr-OH] (H-RKDVY-OH): in assay [1], the “inhibition of HBV replication as compared to the virus control infection” value stood at 6.2%. Moreover, the “inhibition of HCMV plaque formation as compared to the virus control experiment” value in the assay with HCMV strain AD169 came to 1.4%. Moreover, the “inhibition of the migration of human endothelial cells” value in assay [2] came out at 7%. In addition, the “inhibition of the tube formation of human endothelial cells” value in the assay with HUVEC is on record as 31%. For the same compound, in the assay on murine spleen cells, the “change of the production of TNF-alpha (in words)” value is on record as “did not significantly change”, the “decrease of the production of IFN-gamma” value was found to be 38.0%, the “decrease of the production of IL-5” value worked out at 28.2% and the “induction of the production of IL-2” value is listed as 22.2%. Besides, the “induction of the production of IL-4” value in the assay on murine spleen cells amounted to 70.6%.
On to `CC(C)(C)NC(=O)[C@@H]1CN(Cc2cccnc2)CCN1C[C@@H](O)C[C@@H](Cc1ccccc1)C(=O)N[C@H]1c2ccccc2C[C@H]1O` [indinavir], for which the “antiviral activity of positive control compounds (HIV-1)” value with HIV-1IIIB was “expected levels of antiviral activity”.
Consider “Arg-Lys-Glu-Val-Tyr-OH (RKEVY-OH) [Peptide 1, Splenopentin, commercially available known peptide]”, for which the “inhibition of HBV replication as compared to the virus control infection” value in assay [1] is recorded as 19.5%. The “inhibition of HCMV plaque formation as compared to the virus control experiment” value in the assay on HCMV strain AD169 was “no effect”. The “inhibition of the migration of human endothelial cells” value in assay [2] is “did not inhibit”. In the assay on HUVEC, the “inhibition of the tube formation of human endothelial cells” value was determined as 22%. Moreover, in the assay with murine spleen cells, the “change of the production of IL-5 (in words)” value was “did not significantly change”, the “change of the production of TNF-alpha (in words)” value was “did not significantly change”, the “induction of the production of IFN-γ” value was 38.9% and the “induction of the production of IL-2” value stood at 68.5%. Further, the “induction of the production of IL-4” value in the assay on murine spleen cells was found to be 68.1%.

The values are drawn from patent publication US20100204158A1, “COMBINATION OF SPLENOPENTIN AND THYMOPENTIN AND THE USE THEREOF IN MEDICINE” (priority 2007, published 2010).
